Laboratory results: the NIST ThermoML archive (doi:10.1016/j.fluid.2012.08.003)
Where “and” joins values, the source holds several entries; their conditions need not be identical. Identical values can stand only once.

Conditions: Liquid, Transpiration method

CCCCCCOC=O [hexyl methanoate]
Conditions	vapor or sublimation pressure
275.4 K	0.07241 kPa
278.5 K	0.09094 kPa
283.3 K	0.1319 kPa
288.2 K	0.1935 kPa
293.3 K	0.2694 kPa
293.4 K	0.2753 kPa
298.4 K	0.4056 kPa and 0.4085 kPa
303.2 K	0.5577 kPa
303.3 K	0.5448 kPa
308.3 K	0.7473 kPa and 0.7588 kPa
313.4 K	1.016 kPa and 1.013 kPa

CCCCCOC(C)=O [pentyl ethanoate]
Conditions	vapor or sublimation pressure
274.2 K	0.08539 kPa
274.3 K	0.08709 kPa
275.6 K	0.0953 kPa and 0.09555 kPa
278.2 K	0.1145 kPa
280.8 K	0.1396 kPa
283.2 K	0.1683 kPa
288.2 K	0.2413 kPa
293.3 K	0.343 kPa
298.4 K	0.4754 kPa
303.3 K	0.658 kPa
306.7 K	0.807 kPa
308.2 K	0.9035 kPa
310.6 K	1.031 kPa
313.4 K	1.219 kPa

CCCCCOC(=O)CC [pentyl propanoate]
Conditions	vapor or sublimation pressure [kPa]
274.1 K	0.02995
275.5 K	0.03342
278.3 K	0.04139
280.9 K	0.05087
283.4 K	0.06315
288.3 K	0.09403
293.3 K	0.1374
298.4 K	0.1984
303.3 K	0.2789
308.2 K	0.3925
313.4 K	0.5328
318.5 K	0.7195
320.7 K	0.8423
323.4 K	0.9568
325.6 K	1.098
328.4 K	1.293

CCCCCCOC(=O)CC [hexyl propanoate]
Conditions	vapor or sublimation pressure
278.3 K	0.01764 kPa
280.7 K	0.0221 kPa
283.4 K	0.02827 kPa
285.8 K	0.03417 kPa
288.2 K	0.04354 kPa
298.4 K	0.09932 kPa
303.2 K	0.1369 kPa and 0.1363 kPa
308.2 K	0.2024 kPa
313.3 K	0.2793 kPa
318.5 K	0.3993 kPa
323.4 K	0.5422 kPa
326.4 K	0.6804 kPa
328.4 K	0.7646 kPa
330.6 K	0.8602 kPa
333.3 K	0.9961 kPa

CCCCCCCCOC=O [octyl methanoate]
Conditions	vapor or sublimation pressure
283.3 K	0.01298 kPa
285.7 K	0.01585 kPa
288.2 K	0.01973 kPa
290.8 K	0.02392 kPa
293.3 K	0.02964 kPa
298.4 K	0.04462 kPa
303.2 K	0.0622 kPa and 0.06388 kPa
308.2 K	0.09465 kPa
313.5 K	0.1368 kPa
318.5 K	0.1894 kPa
323.5 K	0.2656 kPa
328.4 K	0.3665 kPa
331.3 K	0.4318 kPa
333.4 K	0.4943 kPa
335.3 K	0.5488 kPa
338.3 K	0.6635 kPa

CCCCCCCCOC(=O)CC [octyl propanoate]
Conditions	vapor or sublimation pressure [kPa]
293.3 K	0.00465
295.7 K	0.00575
298.4 K	0.00732
300.3 K	0.00883
303.3 K	0.01129
308.3 K	0.0173
313.4 K	0.02656
318.5 K	0.0387
323.4 K	0.0541
328.5 K	0.08043
333.3 K	0.1125
338.3 K	0.155
340.3 K	0.176
343 K	0.2098
346.4 K	0.2681
348.4 K	0.2952

CCCCCCCOC=O [heptyl methanoate]
Conditions	vapor or sublimation pressure
276.1 K	0.0215 kPa
277.6 K	0.02468 kPa
278.6 K	0.02656 kPa
280.4 K	0.03187 kPa
283.3 K	0.04168 kPa
288.3 K	0.06125 kPa
293.2 K	0.0889 kPa and 0.08971 kPa
293.3 K	0.08835 kPa
298.3 K	0.13 kPa and 0.1304 kPa
303.3 K	0.183 kPa
308.2 K	0.257 kPa
311 K	0.3176 kPa
313.3 K	0.3549 kPa
316.4 K	0.4359 kPa

CCCCCOC=O [pentyl methanoate]
Conditions	vapor or sublimation pressure
274.2 K	0.2283 kPa
274.3 K	0.2293 kPa
275.7 K	0.2518 kPa
278.3 K	0.3006 kPa and 0.3046 kPa
281 K	0.37 kPa and 0.3692 kPa
283.2 K	0.4349 kPa
288.2 K	0.61 kPa
293.3 K	0.8452 kPa
298.4 K	1.161 kPa
303.3 K	1.571 kPa
305.6 K	1.779 kPa
308 K	2.045 kPa
310.7 K	2.374 kPa
313.3 K	2.757 kPa
